Data: patent US8299048B2, “Hexahydrocyclopentyl[f]indazole sulfonamides and derivatives thereof as selective glucocorticoid receptor modulators” (Merck Sharp & Dohme Corp., priority 2008, dated 2012)

Target: T1, glucocorticoid receptor (Homo sapiens, UniProt P04150)
T1 construct: endogenous in cells
T1 sequence (P04150 1-777): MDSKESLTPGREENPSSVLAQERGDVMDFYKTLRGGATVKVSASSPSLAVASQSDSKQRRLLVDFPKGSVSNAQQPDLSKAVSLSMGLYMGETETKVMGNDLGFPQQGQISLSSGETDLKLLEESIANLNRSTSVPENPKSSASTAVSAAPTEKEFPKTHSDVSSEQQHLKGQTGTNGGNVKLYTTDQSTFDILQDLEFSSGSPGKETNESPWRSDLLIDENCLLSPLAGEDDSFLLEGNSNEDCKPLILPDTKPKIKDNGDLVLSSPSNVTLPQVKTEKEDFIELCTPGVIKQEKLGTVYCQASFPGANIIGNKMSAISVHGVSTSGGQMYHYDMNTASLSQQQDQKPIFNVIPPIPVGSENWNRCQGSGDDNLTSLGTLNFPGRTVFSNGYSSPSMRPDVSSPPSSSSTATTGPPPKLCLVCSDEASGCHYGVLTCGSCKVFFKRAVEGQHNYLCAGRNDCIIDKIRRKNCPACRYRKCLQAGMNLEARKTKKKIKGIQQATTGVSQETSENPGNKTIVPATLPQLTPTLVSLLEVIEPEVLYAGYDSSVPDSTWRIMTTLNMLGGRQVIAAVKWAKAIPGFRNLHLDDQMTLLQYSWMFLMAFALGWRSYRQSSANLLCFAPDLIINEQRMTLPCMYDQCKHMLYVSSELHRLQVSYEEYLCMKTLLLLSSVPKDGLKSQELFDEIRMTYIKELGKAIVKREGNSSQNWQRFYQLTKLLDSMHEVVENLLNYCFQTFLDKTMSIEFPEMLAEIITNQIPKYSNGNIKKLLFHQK
Assay: Ligand binding assay (GR BIND)
Method: • Materials: • Binding Buffer: TEGM (10 mM Tris-HCl, 1 mM EDTA, 10% glycerol, 1 mM beta-mecaptoethanol, 10 mM Sodium Molybdate, pH 7.2) • 50% HAP Slurry: Calbiochem Hydroxylapatite, Fast Flow, in 10 mM Tris, pH 8.0 and 1 mM EDTA. • Wash Buffer: 40 mM Tris, pH7.5, 100 mM KCl, 1 mM EDTA and 1 mM EGTA.
Phenol red-free Trypsin-EDTA is diluted in the same PBS1:10. The cell layers are rinsed with 1× Trypsin, extra Trypsin is poured out, and the cell layers are incubated at 37° C. for ˜2 min. The flask is tapped and checked for signs of cell detachment. Once the cells begin to slide off the flask, the complete media is added. The cells are counted at this point, then diluted to the appropriate concentration and split into flasks or dishes for further culturing (Usually 1:3 to 1:6 dilution).
When the cells are 70 to 85% confluent, they are detached as described above, and collected by centrifuging at 1000 g for 10 minutes at 4° C. The cell pellet is washed twice with TEGM (10 mM Tris-HCl, 1 mM EDTA, 10% glycerol, 1 mM beta-mercaptoethanol, 10 mM Sodium Molybdate, pH 7.2). After the final wash, the cells are resuspended in TEGM at a concentration of 10^7 cells/mL. The cell suspension is snap frozen in liquid nitrogen or ethanol/dry ice bath and transferred to −80° C. freezer on dry ice. Before setting up the binding assay, the frozen samples are left on ice-water to just thaw (˜1 hr). Then the samples are centrifuged at 12,500 g to 20,000 g for 30 min at 4° C. The supernatant is used to set-up assay right away. If using 50 μL of supernatant, the test compound can be prepared in 50 μL of the TEGM buffer.
1×TEGM buffer is prepared, and the isotope-containing assay mixture is prepared in the following order: EtOH (2% final concentration in reaction), 3H-DEX (Amersham Biosciences) and 1×TEGM. [e.g. For 100 samples, 200 μL (100×2) of EtOH+4.25 μL of 1:10 ^3H—Dex stock+2300 μL (100×23) 1×TEGM]. The compound is serially diluted, e.g., if starting final conc. is 1 μM, and the compound is in 25 μL of solution, for duplicate samples, 75 μL of 4×1 μM solution is made and 3 μL of 100 μM is added to 72 μL of buffer, and 1:5 serial dilution.
25 μL of ^3H-DEX (6 nM) trace and 25 μL compound solution are first mixed together, followed by addition of 50 μL receptor solution. The reaction is gently mixed, spun briefly at about 200 rpm and incubated at 4° C. overnight. 100 μL of 50% HAP slurry is prepared and added to the incubated reaction which is then vortexed and incubated on ice for 5 to 10 minutes. The reaction mixture is vortexed twice more to resuspend HAP while incubating reaction. The samples in 96-well format are then washed in wash buffer using The FilterMate™ Universal Harvester plate washer (Packard). The washing process transfers HAP pellet containing ligand-bound expressed receptor to Unifilter-96 GF/B filter plate (Packard). The HAP pellet on the filter plate is incubated with 50 μL of MICROSCINT (Packard) scintillint for 30 minutes before being counted on the TopCount microscintillation counter (Packard). […] are calculated using DEX as a reference.

**Q.** For `C[C@]12Cc3cnn(-c4ccc(F)cc4)c3C=C1CC[C@@H]2CN(CCc1ccccc1F)S(=O)(=O)Cc1ccccc1Cl` [Example 107, 1-(2-chlorophenyl)-N-[2-(2-fluorophenyl)ethyl]-N-{[(4αR,5S)-1-(4-fluorophenyl)-4α-methyl-1,4,4α,5,6,7-hexahydrocyclopenta[f]indazol-5-yl]methyl}methanesulfonamide], which Ki is on record?
**A.** Its Ki is 1.8 nM.

**Q.** `C[C@]12Cc3cnn(-c4ccc(F)cc4)c3C=C1CC[C@@H]2CN(CCc1ccccc1F)S(=O)(=O)Cc1ccccc1C(F)(F)F` [Example 108, N-[2-(2-fluorophenyl)ethyl]-N-{[(4αR,5S)-1-(4-fluorophenyl)-4α-methyl-1,4,4α,5,6,7-hexahydrocyclopenta[f]indazol-5-yl]methyl}-1-[2-(trifluoromethyl)phenyl]methanesulfonamide] was tested. Which Ki did it give?
**A.** The Ki was 2.3 nM.

**Q.** `CC(C1CCC2=Cc3c(cnn3-c3ccc(F)cc3)C[C@@]21C)N(CC1CC1)S(=O)(=O)CC(F)(F)F` (stereo partly drawn) [Example 109, N-(cyclopropylmethyl)-2,2,2-trifluoro-N-{1-[(4αR)-1-(4-fluorophenyl)-4α-methyl-1,4,4α,5,6,7-hexahydrocyclopenta[f]indazol-5-yl]ethyl}ethanesulfonamide] was tested. Which Ki did it give?
**A.** Its Ki is 2.1 nM.

**Q.** `C[C@]12Cc3cnn(-c4ccc(F)cc4)c3C=C1CC[C@@H]2CN(CC1CCCO1)S(=O)(=O)Cc1cccc(C(F)(F)F)c1` (stereo partly drawn) [Example 110, N-{[(4αR,5S)-1-(4-fluorophenyl)-4α-methyl-1,4,4α,5,6,7-hexahydrocyclopenta[f]indazol-5-yl]methyl}-N-(tetrahydrofuran-2-ylmethyl)-1-[3-(trifluoromethyl)phenyl]methanesulfonamide] was tested. Which Ki did it give?
**A.** The Ki was 1.4 nM.

**Q.** Which Ki does the source give for `C[C@]12Cc3cnn(-c4ccc(F)cc4)c3C=C1CC[C@@H]2CN(CCc1ccccc1F)S(=O)(=O)Cc1ccc(Cl)c(Cl)c1` [Example 111, 1-(3,4-dichlorophenyl)-N-[2-(2-fluorophenyl)ethyl]-N-{[(4αR,5S)-1-(4-fluorophenyl)-4α-methyl-1,4,4α,5,6,7-hexahydrocyclopenta[f]indazol-5-yl]methyl}methanesulfonamide] here?
**A.** Its Ki is 1.8 nM.

**Q.** How did the Ki turn out when `C[C@H](O)CN(C[C@H]1CCC2=Cc3c(cnn3-c3ccc(F)cc3)C[C@@]21C)S(=O)(=O)c1ccc(F)c(Cl)c1` [Example 112, 3-chloro-4-fluoro-N-{[(4αR,5S)-1-(4-fluorophenyl)-4α-methyl-1,4,4α,5,6,7-hexahydrocyclopenta[f]indazol-5-yl]methyl}-N-[(2S)-2-hydroxypropyl]benzenesulfonamide] was run?
**A.** Its Ki is 1.7 nM.

**Q.** For `C[C@H](O)CN(C[C@H]1CCC2=Cc3c(cnn3-c3ccc(F)cc3)C[C@@]21C)S(=O)(=O)CC(F)(F)F` [Example 113], which Ki is on record?
**A.** Its Ki is 2.2 nM.

**Q.** How did the Ki turn out when `C[C@@H](CN(C[C@H]1CCC2=Cc3c(cnn3-c3ccc(F)cc3)C[C@@]21C)S(=O)(=O)CC(F)(F)F)OS(=O)(=O)CC(F)(F)F` [Example 114, (1S)-2-{{[(4αR,5S)-1-(4-fluorophenyl)-4α-methyl-1,4,4α,5,6,7-hexahydrocyclopenta[f]indazol-5-yl]methyl}[(2,2,2-trifluoroethyl)sulfonyl]amino}-1-methylethyl 2,2,2-trifluoroethanesulfonate] was run?
**A.** The Ki was 0.8 nM.

**Q.** With `C[C@@H](O)CN(C[C@H]1CCC2=Cc3c(cnn3-c3ccc(F)cc3)C[C@@]21C)S(=O)(=O)c1ccc(F)c(Cl)c1` [Example 115, 3-chloro-4-fluoro-N-{[(4αR,5S)-1-(4-fluorophenyl)-4α-methyl-1,4,4α,5,6,7-hexahydrocyclopenta[f]indazol-5-yl]methyl}-N-[(2R)-2-hydroxypropyl]benzenesulfonamide] as the compound, how does the Ki read?
**A.** Its Ki is 2.9 nM.

**Q.** How did the Ki turn out when `C[C@]12Cc3cnn(-c4ccc(F)cc4)c3C=C1CC[C@@H]2CN(CCc1ccccc1O)S(=O)(=O)c1ccccc1F` [Example 116, 2-fluoro-N-{[(4αR,5S)-1-(4-fluorophenyl)-4α-methyl-1,4,4α,5,6,7-hexahydrocyclopenta[f]indazol-5-yl]methyl}-N-[2-(2-hydroxyphenyl)ethyl]benzenesulfonamide] was run?
**A.** Its Ki is 1.4 nM.

**Q.** How did the Ki turn out when `C[C@]12Cc3cnn(-c4ccc(F)cc4)c3C=C1CC[C@@H]2CN(CCO)S(=O)(=O)c1ccccc1C(N)=O` [Example 117, 2-{[{[(4αR,5S)-1-(4-fluorophenyl)-4α-methyl-1,4,4α,5,6,7-hexahydrocyclopenta[f]indazol-5-yl]methyl}(2-hydroxyethyl)amino]sulfonyl}benzamide] was run?
**A.** Its Ki is 9.4 nM.

**Q.** How did the Ki turn out when `COCCN(C[C@H]1CCC2=Cc3c(cnn3-c3ccc(F)cc3)C[C@@]21C)S(=O)(=O)CCN1C(=O)c2ccccc2C1=O` [Example 118, 2-(1,3-dioxo-1,3-dihydro-2H-isoindol-2-yl)-N-{[(4αR,5S)-1-(4-fluorophenyl)-4α-methyl-1,4,4α,5,6,7-hexahydrocyclopenta[f]indazol-5-yl]methyl}-N-(2-methoxyethyl)ethanesulfonamide] was run?
**A.** Its Ki is 3.8 nM.

**Q.** With `COc1ccccc1CCN(C[C@H]1CCC2=Cc3c(cnn3-c3ccc(F)cc3)C[C@@]21C)S(=O)(=O)Cc1cccc(C(F)(F)F)c1` [Example 119, N-{[(4αR,5S)-1-(4-fluorophenyl)-4α-methyl-1,4,4α,5,6,7-hexahydrocyclopenta[f]indazol-5-yl]methyl}-N-[2-(2-methoxyphenyl)ethyl]-1-[3-(trifluoromethyl)phenyl]methanesulfonamide] as the compound, how does the Ki read?
**A.** Its Ki is 2.3 nM.

**Q.** With `COc1ccccc1CCN(C[C@H]1CCC2=Cc3c(cnn3-c3ccc(F)cc3)C[C@@]21C)S(=O)(=O)CC(F)(F)F` [Example 120, 2,2,2-trifluoro-N-{[(4αR,5S)-1-(4-fluorophenyl)-4α-methyl-1,4,4α,5,6,7-hexahydrocyclopenta[f]indazol-5-yl]methyl}-N-[2-(2-methoxyphenyl)ethyl]ethanesulfonamide] as the compound, how does the Ki read?
**A.** The Ki was 1.3 nM.

**Q.** How did the Ki turn out when `C[C@]12Cc3cnn(-c4ccc(F)cc4)c3C=C1CC[C@@H]2CN(CCc1ccccc1F)S(=O)(=O)CCN1C(=O)c2ccccc2C1=O` [Example 121, 2-(1,3-dioxo-1,3-dihydro-2H-isoindol-2-yl)-N-[2-(2-fluorophenyl)ethyl]-N-{[(4αR,5S)-1-(4-fluorophenyl)-4α-methyl-1,4,4α,5,6,7-hexahydrocyclopenta[f]indazol-5-yl]methyl}ethanesulfonamide] was run?
**A.** Its Ki is 5.3 nM.

**Q.** How did the Ki turn out when `C[C@]12Cc3cnn(-c4ccc(F)cc4)c3C=C1CC[C@@H]2CN(CCc1ccccc1O)S(=O)(=O)Cc1cccc(C(F)(F)F)c1` [Example 122, N-{[(4αR,5S)-1-(4-fluorophenyl)-4α-methyl-1,4,4α,5,6,7-hexahydrocyclopenta[f]indazol-5-yl]methyl}-N-[2-(2-hydroxyphenyl)ethyl]-1-[3-(trifluoromethyl)phenyl]methanesulfonamide] was run?
**A.** The Ki was 2.9 nM.
